From ChEMBL document CHEMBL3217594, “Structureactivity relationships of methyl-lysine reader antagonists” (Medchemcomm, 2012)
Active and inactive are the calls of the source. The rule behind the calls is not given here.

How the values were obtained:
[1] = target: T1, MBT domain-containing protein 1 (Homo sapiens, UniProt Q05BQ5); assay: Antagonist activity at MBTD1 (unknown origin) assessed as inhibition of MBTD1/biotinylated H4K20Me1 peptide interaction at 30 uM after 30 mins by AlphaScreen assay
[2] = target: T2, Lethal(3)malignant brain tumor-like protein 4 (Homo sapiens, UniProt Q8NA19); assay: Antagonist activity at L3MBTL4 (unknown origin) assessed as inhibition of L3MBTL4/biotinylated H2AK36Me1 peptide interaction after 30 mins by AlphaScreen assay
T2 sequence (Q8NA19 whole entry): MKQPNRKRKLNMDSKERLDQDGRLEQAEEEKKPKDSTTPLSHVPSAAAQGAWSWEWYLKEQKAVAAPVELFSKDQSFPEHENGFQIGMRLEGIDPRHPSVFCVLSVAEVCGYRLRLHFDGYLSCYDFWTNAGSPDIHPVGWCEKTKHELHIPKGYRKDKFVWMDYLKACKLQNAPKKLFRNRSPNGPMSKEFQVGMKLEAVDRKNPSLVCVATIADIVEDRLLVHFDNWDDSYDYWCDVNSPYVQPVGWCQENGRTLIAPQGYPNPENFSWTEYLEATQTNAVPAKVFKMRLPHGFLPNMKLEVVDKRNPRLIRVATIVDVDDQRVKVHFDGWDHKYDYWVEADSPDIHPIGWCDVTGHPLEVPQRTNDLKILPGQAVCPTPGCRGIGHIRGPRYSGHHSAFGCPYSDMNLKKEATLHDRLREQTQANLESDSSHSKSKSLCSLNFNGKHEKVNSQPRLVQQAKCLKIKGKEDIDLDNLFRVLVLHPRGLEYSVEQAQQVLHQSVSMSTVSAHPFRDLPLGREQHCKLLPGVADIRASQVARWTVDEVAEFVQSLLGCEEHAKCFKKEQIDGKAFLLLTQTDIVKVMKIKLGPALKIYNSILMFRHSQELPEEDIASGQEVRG

[3] = target: T3, Chromobox protein homolog 7 (Homo sapiens) (UniProt O95931); assay: Antagonist activity at Flag-tagged CBX7 (unknown origin) assessed as inhibition of CBX7/biotinylated H3K9Me3 peptide interaction at 30 uM after 30 mins by AlphaScreen assay
T3 sequence (whole entry): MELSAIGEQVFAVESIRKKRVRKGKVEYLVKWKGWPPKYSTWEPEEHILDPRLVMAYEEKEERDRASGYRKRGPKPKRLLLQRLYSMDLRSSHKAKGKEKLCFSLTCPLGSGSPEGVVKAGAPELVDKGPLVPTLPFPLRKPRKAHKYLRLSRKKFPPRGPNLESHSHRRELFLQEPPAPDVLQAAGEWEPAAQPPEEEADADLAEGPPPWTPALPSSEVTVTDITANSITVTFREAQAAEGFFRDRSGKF

[4] = target: T4, Lethal(3)malignant brain tumor-like protein 4 (Homo sapiens) (UniProt Q8NA19); assay: Antagonist activity at L3MBTL4 (unknown origin) assessed as inhibition of L3MBTL4/biotinylated H2AK36Me1 peptide interaction at 30 uM after 30 mins by AlphaScreen assay
T4 sequence (whole entry): T2 sequence (Q8NA19 whole entry)

[5] = target: T5, Chromobox protein homolog 7 (Homo sapiens, UniProt O95931); assay: Antagonist activity at Flag-tagged CBX7 (unknown origin) assessed as inhibition of CBX7/biotinylated H3K9Me3 peptide interaction after 30 mins by AlphaScreen assay
T5 sequence (O95931 whole entry): T3 sequence (whole entry)

[6] = target: T6, Lethal(3)malignant brain tumor-like protein 3 (Homo sapiens, UniProt Q96JM7); assay: Antagonist activity at His-tagged L3MBTL3 (unknown origin) assessed as inhibition of L3MBTL3/biotinylated H4K20Me2 peptide interaction after 30 mins by AlphaScreen assay
T6 sequence (Q96JM7 whole entry): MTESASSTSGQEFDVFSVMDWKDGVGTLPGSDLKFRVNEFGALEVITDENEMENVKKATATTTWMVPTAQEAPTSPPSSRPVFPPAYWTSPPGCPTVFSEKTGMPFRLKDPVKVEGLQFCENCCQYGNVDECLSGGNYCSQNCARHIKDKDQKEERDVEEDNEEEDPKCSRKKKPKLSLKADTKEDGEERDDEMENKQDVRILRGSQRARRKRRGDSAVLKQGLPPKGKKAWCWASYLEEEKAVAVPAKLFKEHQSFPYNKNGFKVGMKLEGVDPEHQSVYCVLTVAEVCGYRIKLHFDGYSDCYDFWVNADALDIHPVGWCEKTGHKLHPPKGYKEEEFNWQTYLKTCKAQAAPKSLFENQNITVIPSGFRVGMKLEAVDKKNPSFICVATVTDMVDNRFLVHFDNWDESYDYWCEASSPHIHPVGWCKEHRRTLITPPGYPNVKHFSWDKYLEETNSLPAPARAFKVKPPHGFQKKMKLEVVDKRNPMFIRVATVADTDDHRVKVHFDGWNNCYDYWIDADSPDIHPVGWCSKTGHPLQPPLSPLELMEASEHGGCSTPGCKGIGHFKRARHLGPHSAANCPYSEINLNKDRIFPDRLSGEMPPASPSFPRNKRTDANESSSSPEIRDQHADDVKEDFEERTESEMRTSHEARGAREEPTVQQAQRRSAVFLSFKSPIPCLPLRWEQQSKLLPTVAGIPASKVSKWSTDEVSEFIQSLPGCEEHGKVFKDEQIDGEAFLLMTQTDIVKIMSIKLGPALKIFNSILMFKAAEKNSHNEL

[7] = target: T1, MBT domain-containing protein 1; assay: Antagonist activity at MBTD1 (unknown origin) assessed as inhibition of MBTD1/biotinylated H4K20Me1 peptide interaction after 30 mins by AlphaScreen assay
[8] = target: T7, Scm-like with four MBT domains protein 1 (Homo sapiens, UniProt Q9UHJ3); assay: Antagonist activity at SFMBT1 (unknown origin) assessed as inhibition of SFMBT1/biotinylated H3K9Me1 peptide interaction after 30 mins by AlphaScreen assay
T7 sequence (Q9UHJ3 whole entry): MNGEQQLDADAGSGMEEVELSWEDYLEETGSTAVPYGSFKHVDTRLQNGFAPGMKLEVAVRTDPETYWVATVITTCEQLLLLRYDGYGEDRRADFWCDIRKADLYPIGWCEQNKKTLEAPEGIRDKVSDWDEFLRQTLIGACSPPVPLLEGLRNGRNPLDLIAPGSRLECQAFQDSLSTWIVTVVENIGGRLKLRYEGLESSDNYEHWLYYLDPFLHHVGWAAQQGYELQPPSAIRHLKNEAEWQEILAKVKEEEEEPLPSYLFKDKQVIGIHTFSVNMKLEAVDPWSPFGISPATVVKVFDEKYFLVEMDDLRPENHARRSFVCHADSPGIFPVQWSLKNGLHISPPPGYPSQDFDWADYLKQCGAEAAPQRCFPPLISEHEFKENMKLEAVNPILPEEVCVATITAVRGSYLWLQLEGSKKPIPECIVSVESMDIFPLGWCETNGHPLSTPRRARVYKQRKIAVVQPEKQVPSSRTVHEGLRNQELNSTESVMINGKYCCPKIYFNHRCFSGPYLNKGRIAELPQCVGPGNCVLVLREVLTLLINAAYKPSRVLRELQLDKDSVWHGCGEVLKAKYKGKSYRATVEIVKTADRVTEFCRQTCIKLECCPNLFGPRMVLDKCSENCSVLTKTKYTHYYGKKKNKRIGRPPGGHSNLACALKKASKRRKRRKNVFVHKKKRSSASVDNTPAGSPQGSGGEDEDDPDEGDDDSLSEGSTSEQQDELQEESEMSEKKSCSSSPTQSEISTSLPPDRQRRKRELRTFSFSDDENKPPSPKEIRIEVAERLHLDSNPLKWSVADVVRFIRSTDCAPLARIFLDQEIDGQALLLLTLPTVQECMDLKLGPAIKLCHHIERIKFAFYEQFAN

[9] = target: T8, Scm-like with four MBT domains protein 1 (Homo sapiens) (UniProt Q9UHJ3); assay: Antagonist activity at SFMBT1 (unknown origin) assessed as inhibition of SFMBT1/biotinylated H3K9Me1 peptide interaction at 30 uM after 30 mins by AlphaScreen assay
T8 sequence (whole entry): T7 sequence (Q9UHJ3 whole entry)

T1 sequence (Q05BQ5 whole entry, the tested form may be a part): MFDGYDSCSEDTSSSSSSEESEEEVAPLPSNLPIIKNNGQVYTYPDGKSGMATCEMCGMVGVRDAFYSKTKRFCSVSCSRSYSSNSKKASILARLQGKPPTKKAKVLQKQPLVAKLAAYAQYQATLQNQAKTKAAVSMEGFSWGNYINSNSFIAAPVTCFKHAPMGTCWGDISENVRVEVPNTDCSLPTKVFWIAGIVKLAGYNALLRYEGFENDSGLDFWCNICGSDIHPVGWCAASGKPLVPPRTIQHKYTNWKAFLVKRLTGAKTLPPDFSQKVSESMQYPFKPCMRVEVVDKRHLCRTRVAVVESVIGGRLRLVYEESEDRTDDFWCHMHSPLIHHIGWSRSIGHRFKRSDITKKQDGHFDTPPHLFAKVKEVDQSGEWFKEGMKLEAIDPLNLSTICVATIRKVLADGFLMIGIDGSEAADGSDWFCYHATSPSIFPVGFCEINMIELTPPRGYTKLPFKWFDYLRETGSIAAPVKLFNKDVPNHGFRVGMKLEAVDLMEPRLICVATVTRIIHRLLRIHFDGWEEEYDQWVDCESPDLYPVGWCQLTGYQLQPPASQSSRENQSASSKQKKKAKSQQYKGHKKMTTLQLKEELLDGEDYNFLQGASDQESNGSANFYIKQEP

Compound | inhibition [1] | IC50 [2] | inhibition [3] | inhibition [4] | IC50 [5] | IC50 [6] | IC50 [7] | IC50 [8] | inhibition [9]
O=C(c1ccccc1Br)N1CCC(N2CCCC2)CC1 | 31% | > 30 µM | 17% | 29% | > 30 µM | 6.8 µM | > 30 µM | > 30 µM | inactive
O=C(c1cccc(Br)c1)N1CCC(N2CC=CC2)CC1 | 24% | > 30 µM | 18% | 28% | > 30 µM | 8.7 µM | > 30 µM | > 30 µM | inactive
c1ccc(C(c2ccccc2)N2CCC(N3CCCC3)CC2)cc1 | 36% | > 30 µM | inactive | 17% | > 30 µM | 2.4 µM | > 30 µM | > 30 µM | inactive
O=C(c1ccc(Br)cc1)N1CCC(N2CCCC2)CC1 | 24% | > 30 µM | inactive | 30% | > 30 µM | 4.1 µM | > 30 µM | > 30 µM | inactive
O=C(c1cncc(Br)c1)N1CCC(N2CCCC2)CC1 | 23% | > 30 µM | 9% | 41% | > 30 µM | 4.8 µM | > 30 µM | > 30 µM | inactive
O=C(c1cccc(Br)c1)N1CC2CCC(C1)C2N1CCCC1 (stereo not given) | 31% | > 30 µM | inactive | 16% | > 30 µM | 3.6 µM | > 30 µM | > 30 µM | inactive
CNC(=O)c1cccc(C(=O)N2CCC(N3CCCC3)CC2)c1 | 21% | > 30 µM | inactive | 32% | > 30 µM | 6.4 µM | > 30 µM | > 30 µM | inactive
O=C(c1cccc(Br)c1)N1CCCC(N2CCCC2)CC1 (stereo not given) |  | > 30 µM | 13% | 28% | > 30 µM | 6.7 µM | 15.2 µM | > 30 µM | inactive
O=C(c1ccccc1)N1CCC(N2CCCC2)CC1 | 22% | > 30 µM | inactive | 40% | > 30 µM | 6.2 µM | > 30 µM | > 30 µM | inactive
